{"source": "patent US5693488A", "about": "“Transmembrane tyrosine phosphatase, nucleic acids encoding the same, and methods of use thereof” (The Rockefeller University, priority 1994, dated 1997)", "key": {"ChPTPλ": {"test_system": "ChPTPλ", "assay": "PTP assay of ChPTPλ immunoprecipitated with A299 from DT40 cells (release of 32Pi from tyrosine-phosphorylated substrate)", "format": "biochemical, chicken", "conditions": "for ChPTPλ (% activity): buffer 20 mM Hepes (pH 7.4); for effect on ChPTPλ activity (in words) / effect on ChPTPλ activity: concentration not given (Table 1); for requirement for higher ChPTPλ activity in vitro (in words): chelator", "description": "For immunoblot (Western) analysis, cells were lysed in 1% SDS containing protease inhibitor mix (1 mM phenylmethylsulfonyl fluoride/2 μg aprotinin per ml/1 μg pepstatin per ml) (Boehringer). […] For immunoprecipitation, cells were solubilized in 1% NP-40/PBS/protease inhibitor mix, then ChPTPλ was immunoprecipitated with pA299 (25).\n(§1) Raytide (Oncogene Science) and bovine brain myelin basic protein (Sigma) (20 μg each) were phosphorylated on tyrosines by v-Src (34 pg), purified from a baculovirus expression system (35a), in 50 μl containing 20 mM Tris-HCl, pH 7.2/5 mM MnCl2 /50 μCi [γ-^32 P]ATP at 30° C. for 3 h. Casein and histone 2B (Sigma) were phosphorylated on serines and threonines by the catalytic subunit of calf heart cAMP-dependent protein kinase (1 U, Sigma) in 50 μl including 25 mM Hepes, pH 7.4/10 mM MgCl2 /10 mM DTT/50 μCi [γ-^32 P]ATP. All reactions were terminated by TCA-precipitationand resuspended in Tris-HCl (pH 8.0) as previously described (5).\n(§2) […] When bacterial extract was used, assay was done in 50 μl of PTP buffer. After incubating at 30° C. for 30 min, the reactions were stopped, and the released ^32 Pi was measured as previously described (5)."}, "[1]": {"biological_target": "T1, pKPTPλ, truncated ChPTPλ containing the intracellular domain (Gallus gallus, UniProt Q91976)", "T1 construct": "HindIII/EcoRI fragment in pKKUC12, E. coli DHB4 extract", "T1 sequence (Q91976 541-1237)": "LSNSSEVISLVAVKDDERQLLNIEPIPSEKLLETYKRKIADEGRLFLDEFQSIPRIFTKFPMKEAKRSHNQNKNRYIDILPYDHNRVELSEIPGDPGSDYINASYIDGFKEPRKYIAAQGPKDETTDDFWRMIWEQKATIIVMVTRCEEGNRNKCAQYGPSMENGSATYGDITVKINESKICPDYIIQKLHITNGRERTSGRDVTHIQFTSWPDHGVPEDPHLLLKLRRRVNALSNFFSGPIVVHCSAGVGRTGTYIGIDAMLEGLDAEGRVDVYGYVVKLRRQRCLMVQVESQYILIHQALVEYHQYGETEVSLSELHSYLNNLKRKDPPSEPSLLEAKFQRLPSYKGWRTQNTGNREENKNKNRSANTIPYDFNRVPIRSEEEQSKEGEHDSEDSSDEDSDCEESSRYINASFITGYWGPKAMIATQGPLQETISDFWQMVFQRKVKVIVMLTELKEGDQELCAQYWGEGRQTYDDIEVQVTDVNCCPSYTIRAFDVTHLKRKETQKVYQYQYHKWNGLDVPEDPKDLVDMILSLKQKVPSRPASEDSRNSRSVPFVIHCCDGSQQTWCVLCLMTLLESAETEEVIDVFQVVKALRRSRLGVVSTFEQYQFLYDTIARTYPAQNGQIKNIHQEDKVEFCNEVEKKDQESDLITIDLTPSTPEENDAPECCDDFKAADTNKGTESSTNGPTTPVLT", "assay": "PTP assay of bacterial extract expressing pKPTPλ", "format": "biochemical, chicken", "description": "A 2 kb-cDNA fragment encoding the entire intracellular domain of ChPTPλ was excised by HindIII and EcoRI (starting from leucine 520, FIG. 2A-2C) and ligated to the expression vector pKKUC12. The recombinant,pkPTPλ, was transformed into E. coli DHB4 that lacks alkaline phosphatase (35). After induction by 0.4 mM IPTG for 2 h, bacterial extracts were prepared (5) and 5 μl samples were used for PTP assays. The extract of DHB4 containing the vector only was used as a negative control.\nas §1, §2"}, "[2]": {"conditions": "10 mM, buffer 20 mM Hepes (pH 7.4), 10 mM DTT, 5 mM EDTA"}}}
{"compound": "[Ca+2].[Cl-].[Cl-]", "note": "[CaCl2]", "values": [{"measurement": "ChPTPλ (% activity)", "setting": "ChPTPλ; 10 mM, 10 mM DTT, 5 mM EDTA", "value": 100, "unit": "%"}, {"measurement": "effect on ChPTPλ activity (in words)", "setting": "ChPTPλ", "value": "no effect at all"}, {"measurement": "pKPTPλ (% activity)", "setting": "[1]; [2]", "value": 90, "unit": "%"}]}
{"compound": "O[C@@H](CS)[C@@H](O)CS", "note": "[DTT]", "values": [{"measurement": "ChPTPλ (% activity)", "setting": "ChPTPλ; 10 nM", "value": 65, "unit": "%"}, {"measurement": "ChPTPλ (% activity)", "setting": "ChPTPλ; 1 mM", "value": 39, "unit": "%"}, {"measurement": "requirement for ChPTPλ activity (in words)", "setting": "ChPTPλ; 10 mM, reducing reagent", "value": "required for ChPTPλ activity"}, {"measurement": "pKPTPλ (% activity)", "setting": "[1]; 10 nM, buffer 20 mM Hepes (pH 7.4)", "value": 80, "unit": "%"}]}
{"compound": "O=C(O)CN(CCN(CC(=O)O)CC(=O)O)CC(=O)O", "note": "[EDTA]", "values": [{"measurement": "ChPTPλ (% activity)", "setting": "ChPTPλ; 5 nM, 10 mM DTT", "value": 100, "unit": "%"}, {"measurement": "requirement for higher ChPTPλ activity in vitro (in words)", "setting": "ChPTPλ", "value": "needed for ChPTPλ to reach a higher activity"}, {"measurement": "activity at 0.005 µM", "setting": "[1]; pH 7.4, read-out: pKPTPλ (% activity)", "value": 100, "unit": "%"}]}
{"compound": "O=C(O)CN(CCOCCOCCN(CC(=O)O)CC(=O)O)CC(=O)O", "note": "[EGTA]", "values": [{"measurement": "ChPTPλ (% activity)", "setting": "ChPTPλ; 5 mM, 10 mM DTT", "value": 100, "unit": "%"}, {"measurement": "requirement for higher ChPTPλ activity in vitro (in words)", "setting": "ChPTPλ", "value": "needed for ChPTPλ to reach a higher activity"}, {"measurement": "activity at 5000 µM", "setting": "[1]; 5 mM, buffer 20 mM Hepes (pH 7.4), 10 mM DTT", "value": 100, "unit": "%"}]}
{"compound": "O=C(O)CI", "note": "[Iodoacetate]", "values": [{"measurement": "inhibition of ChPTPλ", "setting": "ChPTPλ; 1 mM", "value": "> 70", "unit": "%"}, {"measurement": "ChPTPλ (% activity)", "setting": "ChPTPλ; 1 mM, 10 mM DTT, 5 mM EDTA", "value": 29, "unit": "%"}]}
{"compound": "[Cl-].[Cl-].[Mg+2]", "note": "[MgCl2]", "values": [{"measurement": "ChPTPλ (% activity)", "setting": "ChPTPλ; 10 mM, 10 mM DTT, 5 mM EDTA", "value": 80, "unit": "%"}, {"measurement": "effect on ChPTPλ activity", "setting": "ChPTPλ", "value": "< 30", "unit": "%"}, {"measurement": "pKPTPλ (% activity)", "setting": "[1]; [2]", "value": 80, "unit": "%"}]}
{"compound": "[Cl][Mn][Cl]", "note": "[MnCl2]", "values": [{"measurement": "ChPTPλ (% activity)", "setting": "ChPTPλ; 10 mM, 10 mM DTT, 5 mM EDTA", "value": 87, "unit": "%"}, {"measurement": "effect on ChPTPλ activity", "setting": "ChPTPλ", "value": "< 30", "unit": "%"}, {"measurement": "pKPTPλ (% activity)", "setting": "[1]; [2]", "value": 51, "unit": "%"}, {"measurement": "inhibitory influence on pKPTPλ activity", "setting": "[1]; same assaying conditions (Table 1)", "value": 49, "unit": "%"}]}
{"compound": "[Na+].[Na+].[O]=[Mo](=[O])([O-])[O-]", "note": "[Na2 MoO4]", "values": [{"measurement": "inhibition of ChPTPλ", "setting": "ChPTPλ; 0.1 mM", "value": "> 70", "unit": "%"}, {"measurement": "ChPTPλ (% activity)", "setting": "ChPTPλ; 0.1 mM, 10 mM DTT, 5 mM EDTA", "value": 24, "unit": "%"}, {"measurement": "pKPTPλ (% activity)", "setting": "[1]; 0.1 mM, buffer 20 mM Hepes (pH 7.4), 10 mM DTT, 5 mM EDTA", "value": 11, "unit": "%"}]}
{"compound": "[Na+].[Na+].[Na+].[O]=[V]([O-])([O-])[O-]", "note": "[Na3 VO4]", "values": [{"measurement": "ChPTPλ (% activity)", "setting": "ChPTPλ; 0.1 mM, 10 mM DTT, 5 mM EDTA", "value": 78, "unit": "%"}, {"measurement": "inhibition of ChPTPλ", "setting": "ChPTPλ; 1 mM", "value": "> 70", "unit": "%"}, {"measurement": "ChPTPλ (% activity)", "setting": "ChPTPλ; 1 mM, 10 mM DTT, 5 mM EDTA", "value": 4, "unit": "%"}, {"measurement": "pKPTPλ (% activity)", "setting": "[1]; 1 mM, buffer 20 mM Hepes (pH 7.4), 10 mM DTT, 5 mM EDTA", "value": 2, "unit": "%"}]}
{"compound": "[Cl-].[Na+]", "note": "[NaCl]", "values": [{"measurement": "ChPTPλ (% activity)", "setting": "ChPTPλ; 200 mM, 10 mM DTT, 5 mM EDTA", "value": 100, "unit": "%"}, {"measurement": "effect on ChPTPλ activity (in words)", "setting": "ChPTPλ", "value": "no effect at all"}]}
{"compound": "[Cl-].[Cl-].[Zn+2]", "note": "[ZnCl2]", "values": [{"measurement": "inhibition of ChPTPλ", "setting": "ChPTPλ; 10 mM", "value": "> 70", "unit": "%"}, {"measurement": "ChPTPλ (% activity)", "setting": "ChPTPλ; 10 mM, 10 mM DTT, 5 mM EDTA", "value": 12, "unit": "%"}, {"measurement": "pKPTPλ (% activity)", "setting": "[1]; [2]", "value": 1, "unit": "%"}]}
{"compound": "NaPO4", "values": [{"measurement": "ChPTPλ (% activity)", "setting": "ChPTPλ; 10 mM, 10 mM DTT, 5 mM EDTA", "value": 70, "unit": "%"}, {"measurement": "effect on ChPTPλ activity", "setting": "ChPTPλ", "value": "< 30", "unit": "%"}, {"measurement": "pKPTPλ (% activity)", "setting": "[1]; [2]", "value": 95, "unit": "%"}]}
